# Data: patent US11629155B2, “Small molecule antagonist compound TAC5 series having toll-like receptor 3/7/8/9 inhibitory function” (AJOU UNIVERSITY INDUSTRY-ACADEMIC COOPERATION FOUNDATION, priority 2018, dated 2023)
# Experiments:
# TLR9 = biological target: T1, TLR9 (Homo sapiens, UniProt Q9NR96); assay: CpG ODN-induced TNF-α or IL-6 secretion in THP1-derived macrophages; assay type: cell-based; settings: dose-dependent manner, FIGS. 4E-4G
# T1 construct: endogenous in cells; host or cells: THP1-derived macrophages (PMA-differentiated)
# T1 sequence (Q9NR96 26-1032): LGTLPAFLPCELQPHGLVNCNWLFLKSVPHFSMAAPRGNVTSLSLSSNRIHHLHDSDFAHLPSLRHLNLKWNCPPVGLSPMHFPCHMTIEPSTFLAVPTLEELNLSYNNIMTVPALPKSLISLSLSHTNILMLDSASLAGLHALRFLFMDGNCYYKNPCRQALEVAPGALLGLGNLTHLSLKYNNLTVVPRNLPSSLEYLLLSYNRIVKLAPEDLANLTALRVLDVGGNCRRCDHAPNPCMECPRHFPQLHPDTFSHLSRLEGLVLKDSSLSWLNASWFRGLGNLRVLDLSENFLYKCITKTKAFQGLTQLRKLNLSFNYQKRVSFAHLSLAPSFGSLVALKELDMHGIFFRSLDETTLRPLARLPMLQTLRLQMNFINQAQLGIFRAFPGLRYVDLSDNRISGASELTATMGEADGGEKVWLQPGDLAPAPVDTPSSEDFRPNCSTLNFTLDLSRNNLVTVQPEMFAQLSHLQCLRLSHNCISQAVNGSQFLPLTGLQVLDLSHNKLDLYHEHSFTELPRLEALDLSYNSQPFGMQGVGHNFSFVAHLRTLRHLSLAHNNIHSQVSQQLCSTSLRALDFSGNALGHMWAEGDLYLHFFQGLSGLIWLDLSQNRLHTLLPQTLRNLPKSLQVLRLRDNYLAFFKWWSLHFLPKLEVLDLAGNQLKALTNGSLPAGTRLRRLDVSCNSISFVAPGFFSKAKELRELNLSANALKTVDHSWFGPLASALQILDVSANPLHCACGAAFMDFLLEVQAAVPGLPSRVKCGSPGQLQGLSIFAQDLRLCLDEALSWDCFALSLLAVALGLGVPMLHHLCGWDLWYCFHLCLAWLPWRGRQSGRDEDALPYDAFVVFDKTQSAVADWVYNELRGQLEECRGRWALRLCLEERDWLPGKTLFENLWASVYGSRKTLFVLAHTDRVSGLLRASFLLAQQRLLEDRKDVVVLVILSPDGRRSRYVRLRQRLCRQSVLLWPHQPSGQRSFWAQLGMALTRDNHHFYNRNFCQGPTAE
# TLR1/2 = biological target: T2, TLR1/2 (Homo sapiens, UniProt O60603+Q15399); assay: Pam3CSK4-induced TNF-α secretion (ELISA) in THP1-derived macrophages; assay type: cell-based; settings: 1 to 50 μM, FIG. 4D
# T2 construct: endogenous in cells; host or cells: THP1-derived macrophages (PMA-differentiated)
# T2 sequence (Q15399 25-786): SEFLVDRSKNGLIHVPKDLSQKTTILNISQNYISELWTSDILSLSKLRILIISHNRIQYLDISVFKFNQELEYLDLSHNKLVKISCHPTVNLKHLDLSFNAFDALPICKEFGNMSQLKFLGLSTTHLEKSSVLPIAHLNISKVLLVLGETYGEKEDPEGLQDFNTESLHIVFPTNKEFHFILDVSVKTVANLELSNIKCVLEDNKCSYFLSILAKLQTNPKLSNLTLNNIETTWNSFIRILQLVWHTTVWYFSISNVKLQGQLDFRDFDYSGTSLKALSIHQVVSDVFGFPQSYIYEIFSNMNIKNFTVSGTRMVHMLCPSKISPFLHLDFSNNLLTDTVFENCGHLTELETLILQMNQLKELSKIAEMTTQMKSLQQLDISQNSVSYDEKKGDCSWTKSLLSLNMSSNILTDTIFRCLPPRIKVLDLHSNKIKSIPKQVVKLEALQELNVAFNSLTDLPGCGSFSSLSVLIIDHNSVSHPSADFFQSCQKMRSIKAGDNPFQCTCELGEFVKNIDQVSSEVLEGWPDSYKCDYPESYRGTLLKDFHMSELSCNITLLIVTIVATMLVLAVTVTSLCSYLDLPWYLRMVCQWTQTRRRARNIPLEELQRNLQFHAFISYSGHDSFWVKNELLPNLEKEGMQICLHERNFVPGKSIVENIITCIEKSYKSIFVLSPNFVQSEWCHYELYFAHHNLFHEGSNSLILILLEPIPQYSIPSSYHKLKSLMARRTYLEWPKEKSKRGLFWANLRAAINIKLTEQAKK
# T2 sequence (O60603 21-784): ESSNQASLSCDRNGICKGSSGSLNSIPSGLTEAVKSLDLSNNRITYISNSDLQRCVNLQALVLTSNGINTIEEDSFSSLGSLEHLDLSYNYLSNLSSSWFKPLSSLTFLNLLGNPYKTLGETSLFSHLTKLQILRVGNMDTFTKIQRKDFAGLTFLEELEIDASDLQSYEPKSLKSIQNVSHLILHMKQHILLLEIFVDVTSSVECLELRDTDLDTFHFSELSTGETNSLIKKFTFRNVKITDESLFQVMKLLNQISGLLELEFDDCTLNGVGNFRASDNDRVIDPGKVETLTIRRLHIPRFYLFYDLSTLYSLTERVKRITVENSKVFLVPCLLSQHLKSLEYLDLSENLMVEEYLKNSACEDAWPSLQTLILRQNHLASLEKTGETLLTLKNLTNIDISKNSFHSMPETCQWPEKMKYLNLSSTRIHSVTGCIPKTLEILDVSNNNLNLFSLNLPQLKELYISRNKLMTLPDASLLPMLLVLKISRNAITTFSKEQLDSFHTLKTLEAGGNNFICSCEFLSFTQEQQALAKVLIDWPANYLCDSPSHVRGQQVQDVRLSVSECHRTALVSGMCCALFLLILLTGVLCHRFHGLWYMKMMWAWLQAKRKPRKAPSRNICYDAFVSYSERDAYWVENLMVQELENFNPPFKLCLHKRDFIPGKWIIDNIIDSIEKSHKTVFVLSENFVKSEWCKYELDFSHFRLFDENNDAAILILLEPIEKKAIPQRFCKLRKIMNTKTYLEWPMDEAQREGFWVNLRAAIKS
# [1] = tested on: C57BL/6 mice, IMQ-induced psoriasis; assay: IMQ-induced psoriasis mouse model; assay type: in vivo
# Method: The therapeutic efficacy of TAC5-a was evaluated in a psoriasis mouse model and a SLE mouse model. Psoriasis was induced in 6-7 week old C57BL/6 mice by topically applying 42 mg of IMQ cream (5%) to the shaved back skin of the mice for 6 consecutive days (FIG. 5A). TAC5-a was injected daily at doses of 50, 100 and 200 nmol/g and the effect thereof on severity was analyzed.
# Histological analysis and immunochemical staining were performed on skin samples of mouse dorsal lesions. The sample was fixed with 4% paraformaldehyde solution, then embedded in paraffin and cut to 7 μm on a glass slide. The sections were stained with hematoxylin and eosin (H&E) and the thickness of the dermis and epidermis were measured. The thickness of skin was measured with a Leica DMi8 fluorescence microscope using a Leica LAS X Hardware Configurator (Leica Microsystems GmbH, Wetzlar, Germany). IMQ-mediated skin inflammation was evaluated by immunohistochemistry (IHC) using a primary antibody that recognizes CD68 (ab31630, 1:200 dilution) as a macrophage marker. […] The skin was stained with hematoxylin and eosin (H&E) in order to evaluate the thickness of the epidermis (yellow arrow) and dermis (green arrow) in IMQ-induced psoriasis mice and thereby to observe the histopathological changes of skin lesions in each group (FIG. 5G) Immunohistochemical analysis of skin lesions in each group was performed using a primary antibody that recognizes CD68.
# TLR7 = biological target: T3, TLR7 (Homo sapiens, UniProt Q9NYK1); assay: IMQ, R848 or CL075-induced TNF-α or IL-6 secretion in THP1-derived macrophages; assay type: cell-based; settings: R848 or CL075, dose-dependent manner, FIGS. 4E-4G
# T3 construct: endogenous in cells; host or cells: THP1-derived macrophages (PMA-differentiated)
# T3 sequence (Q9NYK1 27-1049): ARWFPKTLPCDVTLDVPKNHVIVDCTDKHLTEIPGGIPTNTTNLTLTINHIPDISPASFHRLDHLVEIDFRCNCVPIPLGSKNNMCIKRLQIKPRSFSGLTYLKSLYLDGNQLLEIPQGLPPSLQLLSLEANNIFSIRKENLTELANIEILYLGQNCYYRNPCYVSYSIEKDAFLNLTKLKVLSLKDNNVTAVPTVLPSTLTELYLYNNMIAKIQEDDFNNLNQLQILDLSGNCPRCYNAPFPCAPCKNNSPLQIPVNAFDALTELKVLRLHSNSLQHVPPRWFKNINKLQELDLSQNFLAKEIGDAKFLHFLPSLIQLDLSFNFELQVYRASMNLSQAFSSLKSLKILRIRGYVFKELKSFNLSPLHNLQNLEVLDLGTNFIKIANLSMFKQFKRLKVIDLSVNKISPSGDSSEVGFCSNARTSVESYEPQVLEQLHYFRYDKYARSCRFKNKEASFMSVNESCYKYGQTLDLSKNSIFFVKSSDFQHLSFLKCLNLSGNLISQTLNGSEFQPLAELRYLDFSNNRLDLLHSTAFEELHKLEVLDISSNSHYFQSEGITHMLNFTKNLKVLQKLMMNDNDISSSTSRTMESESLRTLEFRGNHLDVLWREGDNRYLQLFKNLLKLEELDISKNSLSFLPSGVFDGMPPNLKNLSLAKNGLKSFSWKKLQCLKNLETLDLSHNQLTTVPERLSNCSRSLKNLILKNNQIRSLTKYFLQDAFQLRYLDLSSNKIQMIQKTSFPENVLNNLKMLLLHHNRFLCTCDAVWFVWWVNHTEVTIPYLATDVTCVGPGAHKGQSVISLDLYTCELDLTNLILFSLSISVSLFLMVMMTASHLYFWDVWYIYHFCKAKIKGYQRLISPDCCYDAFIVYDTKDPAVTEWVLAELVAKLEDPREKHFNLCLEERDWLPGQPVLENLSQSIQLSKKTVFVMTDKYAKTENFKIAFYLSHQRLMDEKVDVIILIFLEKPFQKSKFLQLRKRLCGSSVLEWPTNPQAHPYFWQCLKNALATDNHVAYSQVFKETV
# TLR7/8 = assay: TLR7/8-mediated IL-6 expression in THP-1 cells; assay type: cell-based, human; settings: FIG. 4C
# Method: RAW264.7 cells (ATCC, Manassas, Va., USA), which are mouse macrophages, were cultured in low-glucose DMEM (Thermo Fisher Scientific Inc.) supplemented with 10% FBS, 100 IU/ml penicillin and 100 μg/ml streptomycin in a culture system. Human monocyte THP1 cells were cultured in RPMI 1640 (Thermo Fisher Scientific Inc.) supplemented with 10% FBS, 100 IU/ml penicillin and 100 μg/ml streptomycin and then differentiation thereof into macrophages was induced using 10 nM phorbol 12-myristate 13-acetate (PMA) (Sigma-Aldrich Co. LLC.) for 24 hours. CL075, R848, CpG-ODN and Poly(I:C) were purchased from InvivoGen (San Diego, Calif., USA), and LPS was purchased from Sigma-Aldrich Co. (St. Louis, Mo., USA).
# Cytotoxicity in RAW 264.7 cells was tested by treatment with these compounds at a concentration of 12.5 to 50 μM. […] The inhibitory effect of TAC5-a on TLR-mediated signaling was confirmed by measuring TNF-α secretion through ELISA in THP1-derived macrophages. […] In addition, in order to evaluate the antagonistic effect of TAC5-a on endosomal TLR activation, cells were cultured along with this compound in the presence of R848 (TLR7/8) or CL075 (TLR7/8), imiquimod (IMQ; TLR7), TL8 (TLR8), poly(I:C) (TLR3) or CpG ODN (TLR9) (FIGS. 4E, 4F and 4G).
structure (smiles),measurement,setting,value
"Nc1cccc(COc2cccnc2N)c1 [TAC5-a, 3-((3-aminobenzyl)oxy)pyridin-2-amine]",TLR9-mediated TNF-α or IL-6 secretion,TLR9,significantly inhibited
same,TLR1/2 (Pam3CSK4)-mediated TNF-α secretion,TLR1/2,did not block
same,effect on back skin inflammation compared with methotrexate (MTX),[1]; FIG. 5B,relatively weaker
same,spleen hypertrophy,[1]; FIG. 5D,adequately prevented
same,thickness of the epidermis and the dermis (H&E),[1]; FIG. 5F,therapeutic effects similar to those of the treatment group were observed
same,expression of CD68 in skin lesions (immunohistochemistry),[1]; FIG. 5H,effectively reduced
same,PASI score (psoriasis area and severity index),"[1]; fourth day of treatment, decreased from 8.0 or higher, FIG. 5C",less than 4.0
same,degree of inflammation in the back skin,"[1]; injected daily at 50, 100 and 200 nmol/g, FIG. 5B",reversal of the degree of inflammation was evident
same,TLR7-mediated TNF-α or IL-6 secretion,TLR7,significantly inhibited
same,TLR7/8-mediated IL-6 expression,TLR7/8,inhibited
